According to patent US7601673B2 (priority 2004, dated 2009):
Where two headings read alike, the source gives them in different places.

Tested on: Phytophthora infestans
Assay type: in vivo, Phytophthora infestans on tomato plants
Settings: individual active compound, tomato leaves, protective, rated after 6 days

Row | SMILES | Efficacy in % of the untreated control (0.25 ppm in the spray liquor) [%] | Efficacy in % of the untreated control (1 ppm in the spray liquor) [%] | Efficacy in % of the untreated control (4 ppm in the spray liquor) [%]
1 | CC1CCN(c2c(-c3c(F)cc(F)cc3F)c(Cl)nc3ncnn23)CC1 [II, 5-chloro-7-(4-methylpiperidin-1-yl)-6-(2,4,6-trifluorophenyl)-[1,2,4]triazolo[1,5-a]pyrimidine] | 0 | 0 | 0
2 | Cc1c(Br)c2ccc(F)cc2n1S(=O)(=O)c1ncn(S(=O)(=O)N(C)C)n1 [I-62, Tab.7 (IA), N,N-dimethyl-3-(3-bromo-6-fluoro-2-methylindole-1-sulfonyl)-[1,2,4]triazole-1-sulfonamide] | – | 56 | –
